# Experimental data reported in patent US8809341B2, “2,4-pyrimidinediamine compounds and uses as anti-proliferative agents” (Rigel Pharmaceuticals, Inc., priority 2003, dated 2014).
# Tests used:
# H1299 cells = assay: in vitro antiproliferation assay, H1299 (lung); assay type: cell-based
# Experimental: (§1) The IC50 values of various compounds against a various different tumor cell lines were determined using standard in vitro antiproliferation assays. The tumor cell lines tested were as follows: A549 (lung); H1299 (lung), ACHN (kidney/p53 wt), CAKI (renal cell carcinoma), NCI-H460 (lung); HCT116 (colon/p53w0; HELA (cervix/p53 wt), HUH7 (liver/p53 wt), HUVEC (primary endothelial), LNCAP (prostate), HT-29 (colon); MCF-7 (breast); MCF-7 (breast/ER positive), MDA MB435S (breast); MDA MB231 (breast/ER negative), DU145 (prostate); BxPC-3 (pancreatic); SKOV-3 (ovarian); HepG2 (hepatic), NDHF primary normal human dermal fibroblast), SKMEL28 (breast/p53mut), SKMEL5 (breast/p53 wt), U20S (bone) and PC3 (prostate). […] A blank indicates the specified compound was not tested against the specified cell line.
# A549 cells = assay: in vitro antiproliferation assay, A549 (lung); assay type: cell-based
# Experimental: as §1
# [1] = Table 5, in vitro antiproliferation, H1299 (lung) cells
# [2] = Table 5, in vitro antiproliferation, A549 (lung) cells
# [3] = H1299 (lung) cells, antiproliferation
# [4] = A549 (lung) cells, antiproliferation
# [5] = IC50 class against H1299 (lung) tumor cells
# [6] = IC50 class against A549 (lung) tumor cells
# [7] = H1299 (lung) cells, in vitro antiproliferation
# [8] = A549 (lung) cells, in vitro antiproliferation
# [9] = Homo sapiens, NCI-H1299, H1299 (lung) cells
# [10] = Homo sapiens, A549 (lung) cells
# [11] = Table 7, in vitro antiproliferation, H1299 (lung) cells
# [12] = Table 7, in vitro antiproliferation, A549 (lung) cells
# [13] = in vitro antiproliferation, H1299 (lung) cells, Table 4, compounds with no designated stereochemistry tested as racemate
smiles,measurement,setting,value
COc1cc(Nc2ncc(F)c(N(C)c3ccc4c(c3)OCCO4)n2)cc(OC)c1 [compound 546],IC50,H1299 cells; [1],> 20 µM
same,IC50,A549 cells; [2],≤ 20 µM
COc1ccc(Nc2ncc(F)c(Nc3ccc(C(N)=O)cc3)n2)cc1Cl [compound 1028],IC50,H1299 cells; [3],≤ 20 µM
same,IC50,A549 cells; [4],≤ 20 µM
COC(=O)COc1cccc(Nc2ncc(F)c(Nc3ccc(N4CCOCC4)cc3)n2)c1 [compound 989],IC50,H1299 cells; [3],≤ 20 µM
same,IC50,A549 cells; [4],≤ 20 µM
COc1ccc(Nc2nc(Nc3cccc(-c4ncon4)c3)ncc2F)cc1OC [compound 886],IC50,H1299 cells; [3],≤ 20 µM
same,IC50,A549 cells; [4],≤ 20 µM
COc1cc(Nc2nc(Nc3ccc4c(cnn4C(C)(C)CC4CCC4)c3)ncc2F)ccc1F [compound 1101],IC50,H1299 cells; H1299 (lung) cells,≤ 20 µM
same,IC50,A549 cells; A549 (lung) cells,≤ 20 µM
CCOC(=O)N1CCN(c2cccc(Nc3ncc(F)c(N(C)C4CCC4)n3)c2)CC1 [compound 130],IC50,H1299 cells; [5],≤ 20 µM
same,IC50,A549 cells; [6],≤ 20 µM
COc1cc(Nc2ncc(F)c(Nc3cc(C)cc(C)c3)n2)cc(C(F)(F)F)c1 [compound 815],IC50,H1299 cells; [7],≤ 20 µM
same,IC50,A549 cells; [8],≤ 20 µM
CCCCn1ncc2cc(Nc3ncc(F)c(Nc4ccc(Cl)c(Cl)c4)n3)ccc21 [compound 1083],IC50,H1299 cells; H1299 (lung) cells,≤ 20 µM
same,IC50,A549 cells; A549 (lung) cells,≤ 20 µM
CCN1CCN(c2ccc(Nc3ncc(F)c(NC4CC(C)(C)N(C)C(C)(C)C4)n3)cn2)CC1 [compound 183],IC50,H1299 cells; [5],≤ 20 µM
same,IC50,A549 cells; [6],≤ 20 µM
COc1cc(Nc2nc(Nc3cc(CO)cc(CO)c3)ncc2F)cc(C(F)(F)F)c1 [compound 824],IC50,H1299 cells; [7],< 20 µM
same,IC50,A549 cells; [8],≤ 20 µM
NC(=O)c1ccc(Nc2nc(Nc3cccc(O)c3)ncc2F)cc1 [compound 1026],IC50,H1299 cells; [3],≤ 20 µM
same,IC50,A549 cells; [4],> 20 µM
Oc1cccc(Nc2nc(Nc3cccc(-c4ncon4)c3)ncc2F)c1 [compound 890],IC50,H1299 cells; [3],≤ 20 µM
same,IC50,A549 cells; [4],≤ 20 µM
Fc1cnc(Nc2cccc(-c3cnco3)c2)nc1Nc1ccc2c(c1)NCCO2 [compound 591],IC50,H1299 cells; [5],≤ 20 µM
same,IC50,A549 cells; [6],≤ 20 µM
COc1cc(C)c(Nc2ncc(F)c(Nc3ccc4c(c3)NC(=O)[C@@H](C)O4)n2)cc1Cl [compound 1139],IC50,H1299 cells; [9],> 20 µM
same,IC50,A549 cells; [10],≤ 20 µM
COc1ccc(Nc2ncc(F)c(Nc3ccc(OC)c(Cl)c3)n2)cc1Cl [compound 800],IC50,H1299 cells; [7],> 20 µM
same,IC50,A549 cells; [8],≤ 20 µM
CCN1CCN(c2ccc(Nc3ncc(F)c(NC4CCC4)n3)cn2)CC1 [compound 167],IC50,H1299 cells; [5],≤ 20 µM
same,IC50,A549 cells; [6],≤ 20 µM
COc1cc(Nc2nc(Nc3ccc4cnn(C(C)(C)CC5CC5)c4c3)ncc2F)ccc1F [compound 1113],IC50,H1299 cells; H1299 (lung) cells,≤ 20 µM
same,IC50,A549 cells; A549 (lung) cells,≤ 20 µM
CC(=O)N1CCN(c2cccc(Nc3ncc(F)c(Nc4ccc5c(n4)NCCO5)n3)c2)CC1 [compound 606],IC50,H1299 cells; [5],≤ 20 µM
same,IC50,A549 cells; [6],≤ 20 µM
CNC(=O)c1cc2cccc(Nc3ncc(F)c(Nc4ccc5c(c4)OC(F)(F)O5)n3)c2[nH]1 [compound 670],IC50,H1299 cells; [11],> 20 µM
same,IC50,A549 cells; [12],> 20 µM
Fc1cnc(Nc2cc(Cl)cc(Cl)c2)nc1Nc1ccc2c(c1)OCCO2 [compound 530],IC50,H1299 cells; [1],≤ 20 µM
same,IC50,A549 cells; [2],≤ 20 µM
Fc1cnc(Nc2cccc(-c3ncco3)c2)nc1Nc1ccc2c(n1)NCCO2 [compound 610],IC50,H1299 cells; [5],≤ 20 µM
same,IC50,A549 cells; [6],≤ 20 µM
COc1cc(Nc2nc(Nc3ccc4oc(C(=O)O)cc4c3)ncc2F)cc(OC)c1 [compound 657],IC50,H1299 cells; [11],> 20 µM
same,IC50,A549 cells; [12],> 20 µM
Fc1cnc(Nc2cc(Cl)cc(Cl)c2)nc1Nc1ccc2c(c1)OC(F)(F)C(F)(F)O2 [compound 535],IC50,H1299 cells; [1],≤ 20 µM
same,IC50,A549 cells; [2],≤ 20 µM
COc1cc(Nc2ncc(F)c(Nc3ccc4c(n3)NCCO4)n2)cc(OC)c1OC [compound 611],IC50,H1299 cells; [5],≤ 20 µM
same,IC50,A549 cells; [6],≤ 20 µM
Cc1cc(Nc2ncc(F)c(Nc3ccc4c(c3)OC(F)(F)C(F)(F)O4)n2)cc(C)c1Cl [compound 533],IC50,H1299 cells; [1],≤ 20 µM
same,IC50,A549 cells; [2],> 20 µM
CC(=O)N1CCN(c2cccc(Nc3ncc(F)c(NC4CCCC4)n3)c2)CC1 [compound 136],IC50,H1299 cells; [5],≤ 20 µM
same,IC50,A549 cells; [6],≤ 20 µM
Cc1cc(Nc2ncc(F)c(Nc3ccc4c(c3)OCO4)n2)cc(C(F)(F)F)c1 [compound 542],IC50,H1299 cells; [1],> 20 µM
same,IC50,A549 cells; [2],> 20 µM
CC(Nc1ncc(F)c(Nc2ccc3c(c2)OCCO3)n1)c1ccccc1 (stereo not drawn) [compound 1147],IC50,H1299 cells; [9],≤ 20 µM
same,IC50,A549 cells; [10],≤ 20 µM
CC(C)(CC1CC1)n1ncc2cc(Nc3ncc(F)c(Nc4ccc(Cl)c(Cl)c4)n3)ccc21 [compound 1107],IC50,H1299 cells; H1299 (lung) cells,> 20 µM
same,IC50,A549 cells; A549 (lung) cells,> 20 µM
NC(=O)c1ccc(Nc2ncc(F)c(Nc3ccccc3)n2)cc1 [compound 1036],IC50,H1299 cells; [3],≤ 20 µM
same,IC50,A549 cells; [4],≤ 20 µM
COc1cc(Nc2ncc(F)c(N(C)c3ccc4c(c3)N(C)C(=O)C(C)(C)O4)n2)cc(OC)c1 [compound 326],IC50,H1299 cells; [13],≤ 20 µM
same,IC50,"A549 cells; in vitro antiproliferation, A549 (lung) cells, Table 4, compounds with no designated stereochemistry tested as racemate",≤ 20 µM
CCOC(=O)N1CCC(Nc2nc(Nc3ccc(N4CCN(C)CC4)c(C(F)(F)F)c3)ncc2F)CC1 [compound 189],IC50,H1299 cells; [5],≤ 20 µM
same,IC50,A549 cells; [6],≤ 20 µM
Fc1cnc(Nc2ccc(OC(F)F)c(Cl)c2)nc1Nc1ccc2c(c1)OCCO2 [compound 526],IC50,H1299 cells; [1],> 20 µM
same,IC50,A549 cells; [2],≤ 20 µM
CC(C)(CC1CCC1)n1ncc2ccc(Nc3ncc(F)c(Nc4ccc(Cl)c(Cl)c4)n3)cc21 [compound 1103],IC50,H1299 cells; H1299 (lung) cells,> 20 µM
COc1cc(Nc2ncc(F)c(Nc3cc(OC)cc(OC)c3)n2)cc(OC)c1 [compound 840],IC50,H1299 cells; [7],≤ 20 µM
CCOC(=O)CCOc1ccc(Nc2nc(Nc3cccc(OCC(=O)NC)c3)ncc2F)cc1 [compound 1003],IC50,A549 cells; [4],> 20 µM
CCOC(=O)COc1ccc(Nc2ncc(F)c(Nc3ccc4c(c3)OCCO4)n2)cc1 [compound 480],IC50,A549 cells; [2],> 20 µM
CCOC(=O)c1cc2cc(Nc3ncc(F)c(Nc4ccc5c(c4)OCCO5)n3)ccc2[nH]1 [compound 618],IC50,A549 cells; [12],≤ 20 µM
CCOC(=O)c1cc2cc(Nc3ncc(F)c(Nc4ccc(C(C)(C)C)cc4)n3)ccc2[nH]1 [compound 617],IC50,A549 cells; [12],> 20 µM
CC(C)(C)c1cc(Nc2nc(Nc3cccc(N4CCOCC4)c3)ncc2F)n[nH]1 [compound 199],IC50,"A549 cells; Homo sapiens, IC50 class against A549 (lung) tumor cells",≤ 20 µM
O=C(O)COc1ccc(Nc2ncc(F)c(Nc3ccc(OCC(=O)O)cc3)n2)cc1 [compound 733],IC50,A549 cells; [8],> 20 µM
CCCCCCOc1ccc(Nc2ncc(F)c(Nc3ccc4c(c3)OCCO4)n2)cc1 [compound 477],IC50,A549 cells; [2],> 20 µM
Oc1cccc(Nc2ncc(F)c(Nc3cccc(O)c3)n2)c1 [compound 711],IC50,A549 cells; [8],≤ 20 µM
CNC(=O)COc1cccc(Nc2ncc(F)c(Nc3cccc(C(F)(F)F)c3)n2)c1 [compound 770],IC50,A549 cells; [8],≤ 20 µM
OCCOc1cccc(Nc2nc(Nc3cccc(O)c3)ncc2F)c1 [compound 939],IC50,A549 cells; [4],> 20 µM
Cc1cc(C)cc(Nc2ncc(F)c(Nc3ccc4c(c3)NC(=O)C(C)O4)n2)c1 (stereo not drawn) [compound 230],IC50,H1299 cells; [13],≤ 20 µM
Cc1cc(Nc2ncc(F)c(Nc3ccc(O)c(C)c3)n2)ccc1O [compound 731],IC50,A549 cells; [8],> 20 µM
CCCCOc1ccc(Nc2ncc(F)c(Nc3ccc4c(c3)OCCO4)n2)cc1 [compound 479],IC50,A549 cells; [2],> 20 µM
CNC(=O)COc1cccc(Nc2ncc(F)c(Nc3ccc(O)cc3)n2)c1 [compound 1004],IC50,A549 cells; [4],> 20 µM
CNC(=O)COc1cccc(Nc2nc(Nc3cc(OC)cc(OC)c3)ncc2F)c1 [compound 771],IC50,A549 cells; [8],≤ 20 µM
Cn1nc(-c2ccccc2)cc1Nc1nc(Nc2cccc(-c3ncco3)c2)ncc1F [compound 1161],IC50,A549 cells; [10],≤ 20 µM
O=C(O)c1cc2cc(Nc3ncc(F)c(Nc4ccc5c(c4)OCCO5)n3)ccc2o1 [compound 639],IC50,A549 cells; [12],> 20 µM
CCOc1cccc(Nc2ncc(F)c(Nc3cccc(OCC)c3)n2)c1 [compound 707],IC50,A549 cells; [8],≤ 20 µM
CC(C)Oc1ccc(Nc2ncc(F)c(Nc3ccc(OC(C)C)cc3)n2)cc1 [compound 745],IC50,A549 cells; [8],> 20 µM
OCCOc1cccc(Nc2ncc(F)c(Nc3ccc4c(c3)OCCO4)n2)c1 [compound 576],IC50,A549 cells; [2],≤ 20 µM
CCOC(=O)COc1ccc(Nc2ncc(F)c(Nc3ccc(OCC(=O)OCC)cc3)n2)cc1 [compound 737],IC50,A549 cells; [8],> 20 µM
COc1cccc(Nc2ncc(F)c(Nc3cccc(OC)c3)n2)c1 [compound 708],IC50,A549 cells; [8],≤ 20 µM
